TGI and GI50 data for 9 compounds are collected here from PubChem BioAssay (NCI).

Some test systems named below: K-562 leukemia; SN12C renal; PC-3 prostate; A549 NSCLC; CAKI-1 renal; SF-295 CNS; NCI-H226 lung; OVCAR-8 ovarian; 786-0 renal; MDA-MB-435.
Common to all, as to assay: NCI anticancer screen, dose series, 48 h

Several values for one entry are separate records, joined by “and”; a condition that tells them apart may be missing. Equal values may be shown once.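 All cell lines were grown in 96-well plates and treated with compound for 48 hours. GI50 marks 50% less growth. The concentration for full growth arrest is given as TGI.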

Regarding `O=CN/C=C/c1cccc(O)c1`, the TGI in the assay with K-562 leukemia is greater than 100 µM; with SN12C renal, greater than 100 µM; in the assay on PC-3 prostate, greater than 100 µM; with A549 NSCLC, 79.7 µM; in the assay on CAKI-1 renal, greater than 79.7 µM; with SF-295 CNS it was greater than 63.1 µM. Besides, the TGI in the assay with NCI-H226 lung is 89.2 µM; in the assay with OVCAR-8 ovarian, greater than 96.1 µM; in the assay with 786-0 renal, 83.7 µM; in the assay on MDA-MB-435, greater than 100 µM.
Regarding `COc1cccc2c1C(=O)c1c(O)c3c(c(O)c1C2=O)CC(O)(C(O)CO)CC3OC1CC(N2CCOCC2)C(O)C(C)O1` (configuration not stated), the TGI is 1.61 µM in the assay on K-562 leukemia; 0.144 µM in the assay on PC-3 prostate; 0.472 µM with A549 NSCLC; 0.0335 µM with CAKI-1 renal; 0.0718 µM and 0.106 µM with SF-295 CNS; 0.0281 µM in the assay with OVCAR-8 ovarian. For the same compound, the TGI in the assay with 786-0 renal is 0.148 µM and 0.0989 µM; in the assay with MDA-MB-435, 0.0568 µM. Moreover, the GI50 is 0.0186 µM with SN12C renal, 0.0243 µM in the assay with SF-295 CNS, less than 0.001 µM with NCI-H226 lung and less than 0.001 µM in the assay with 786-0 renal.
With `COc1cc(Nc2c(C#N)cnc3cc(OCCCN4CCN(C)CC4)c(OC)cc23)c(Cl)cc1Cl`, the GI50 in the assay on K-562 leukemia is 0.0211 µM; in the assay with SN12C renal, 0.308 µM; with PC-3 prostate it was 5.02 µM; in the assay on A549 NSCLC it was 2.74 µM; in the assay on CAKI-1 renal, 0.482 µM; in the assay with SF-295 CNS, 7.55 µM. Besides, the GI50 in the assay on NCI-H226 lung was 12.1 µM; in the assay on OVCAR-8 ovarian, 2.35 µM; with 786-0 renal it was 2.09 µM; in the assay with MDA-MB-435 it was 1.97 µM. For the same compound, the TGI with K-562 leukemia is 3.82 µM; in the assay with SN12C renal it was 14.4 µM; in the assay on PC-3 prostate, 16.7 µM; in the assay on A549 NSCLC it was 13.5 µM; in the assay on CAKI-1 renal, 5.13 µM; with SF-295 CNS it was 21 µM. For the same compound, the TGI turned out to be 34.5 µM in the assay on NCI-H226 lung, 14.4 µM with OVCAR-8 ovarian, 9.93 µM in the assay with 786-0 renal and 5.36 µM in the assay with MDA-MB-435.
As to `CCn1cnc(C[C@H](NC(=O)[C@@H](NC(=O)Nc2cc(C(F)(F)F)cc(C(F)(F)F)c2)C(C)C)C(=O)OC)c1`, the GI50 is 6.38 µM in the assay with K-562 leukemia; 1.73 µM in the assay with SN12C renal; 1.97 µM in the assay with PC-3 prostate; 3.19 µM with A549 NSCLC; greater than 10 µM with CAKI-1 renal; greater than 10 µM with SF-295 CNS. For the same compound, the GI50 was 3.74 µM in the assay on NCI-H226 lung, 1.95 µM in the assay with OVCAR-8 ovarian, 1.81 µM in the assay on 786-0 renal and 3.17 µM in the assay on MDA-MB-435. For the same compound, the TGI with K-562 leukemia was greater than 10 µM; with SN12C renal, 3.57 µM; in the assay with PC-3 prostate it was 4.03 µM; with A549 NSCLC, greater than 10 µM; with CAKI-1 renal, greater than 10 µM; in the assay on SF-295 CNS it was greater than 10 µM. Also, the TGI with NCI-H226 lung was greater than 10 µM; in the assay on OVCAR-8 ovarian, 3.74 µM; with 786-0 renal it was 3.67 µM; in the assay with MDA-MB-435, greater than 10 µM.
Regarding `COc1ccc(-c2nc(/C=N/Nc3cc(C)nc4ccc(Cl)cc34)c(C)o2)cc1`, the GI50 with SN12C renal is 1.8 µM; in the assay with PC-3 prostate, 1.66 µM; in the assay with A549 NSCLC, 1.73 µM; with CAKI-1 renal it was 1.63 µM; in the assay with SF-295 CNS, 1.82 µM; with NCI-H226 lung, 2.35 µM. Also, the values for the GI50 in the assay on OVCAR-8 ovarian, with 786-0 renal and with MDA-MB-435 were 1.89 µM, 1.56 µM and 1.65 µM, respectively. Also, the TGI came out at 3.42 µM in the assay on SN12C renal; 3.17 µM in the assay on PC-3 prostate; 3.32 µM with A549 NSCLC; 2.98 µM in the assay on CAKI-1 renal; 3.31 µM in the assay with SF-295 CNS; 5.14 µM in the assay on NCI-H226 lung. The TGI in the assay with OVCAR-8 ovarian stood at 3.91 µM; in the assay on 786-0 renal it was 2.98 µM; in the assay with MDA-MB-435, 3.07 µM.
`C#CC1(O)C(COP(=O)(O)OC(COCCCCCCCCCCCCCCCCCC)COP(=O)(O)OCC2OC(n3cc(F)c(=O)[nH]c3=O)CC2O)OC(n2ccc(N)nc2=O)C1O` (configuration not stated): the TGI is > 100 µM and 16.7 µM in the assay with K-562 leukemia; greater than 65.1 µM with SN12C renal; 24.3 µM and 11.4 µM with PC-3 prostate; > 38.3 µM and 22.6 µM with A549 NSCLC; 6.72 µM in the assay on CAKI-1 renal; 23.5 µM and 26 µM in the assay with NCI-H226 lung. The TGI is greater than 60.9 µM in the assay with OVCAR-8 ovarian; greater than 100 µM with 786-0 renal; 3.08 µM and 5.9 µM in the assay with MDA-MB-435. In addition, the GI50 was 0.947 µM and 0.417 µM in the assay on PC-3 prostate; < 0.021 µM and 0.0441 µM in the assay with SF-295 CNS; 0.0922 µM and 0.28 µM in the assay with OVCAR-8 ovarian; 0.547 µM in the assay on 786-0 renal.
For `NC(=O)c1ccccc1Nc1ccc2nnc(-c3ccncc3)n2n1`, the GI50 in the assay on K-562 leukemia was 11.1 µM; with SN12C renal it was 3.69 µM; with PC-3 prostate it was 16.2 µM; in the assay on CAKI-1 renal, 2.45 µM; with NCI-H226 lung it was 15 µM; in the assay on OVCAR-8 ovarian it was 8.07 µM. In addition, the results for the GI50 in the assay with 786-0 renal and in the assay with MDA-MB-435 were 10.8 µM and 7.1 µM, respectively. Moreover, the TGI was determined as 60.4 µM with K-562 leukemia; 18.1 µM with SN12C renal; 30.3 µM in the assay with PC-3 prostate; 6.42 µM in the assay on CAKI-1 renal; 44.4 µM with NCI-H226 lung; 31.5 µM with OVCAR-8 ovarian. Further, the TGI in the assay on 786-0 renal is 23.1 µM; in the assay with MDA-MB-435 it was 26.9 µM.
As to `COc1c(O)cc2oc(-c3ccc(O)cc3)cc(=O)c2c1O`, the TGI in the assay with K-562 leukemia, with SN12C renal, in the assay on PC-3 prostate, in the assay on A549 NSCLC, with SF-295 CNS and with NCI-H226 lung was greater than 100 µM each time. Also, the TGI with 786-0 renal and with MDA-MB-435 was greater than 100 µM each time.
For the compound `Cc1ccc(-c2nc(C#N)c(S(=O)(=O)n3nc(C)cc3N)o2)cc1`, the GI50 is 1.25 µM in the assay on K-562 leukemia; 3.65 µM with SN12C renal; 13.8 µM in the assay on PC-3 prostate; 19.6 µM in the assay on A549 NSCLC; 4.3 µM with CAKI-1 renal; 15.8 µM in the assay on SF-295 CNS. For the same compound, the GI50 with NCI-H226 lung was 15.6 µM; with OVCAR-8 ovarian it was 4.66 µM; with 786-0 renal, 2.35 µM; with MDA-MB-435, 10.5 µM. The TGI in the assay with K-562 leukemia amounted to 4.3 µM; in the assay on SN12C renal, 13.9 µM; in the assay with PC-3 prostate it was 29.8 µM; with A549 NSCLC, 39.8 µM; in the assay on CAKI-1 renal it was 14.2 µM; in the assay on SF-295 CNS, 30.5 µM. In addition, the TGI in the assay with NCI-H226 lung is 41.4 µM; in the assay on OVCAR-8 ovarian, 20.9 µM; in the assay on 786-0 renal, 6.35 µM; in the assay on MDA-MB-435, 22.7 µM.
